Measurements: patent US12390448B2, “Prevention or of disease states due to metal dis-homeostasis via administration of posiphen to healthy or sick humans” (ANNOVIS BIO, INC., priority 2017, dated 2025)
Where “and” joins values, the source holds several entries; their conditions need not be identical. Identical values can stand only once.

What was measured:
[1] = test system: neurotoxic aggregating proteins; test: Translation of neurotoxic aggregating proteins in healthy mouse brain; type: in vivo
Source text: Therefore, the original data concerning the effects of Posiphen working under all conditions is wrong. It only works in stressed cells, dividing cells and sick cells, e.g., those cells that have high levels of iron.

retinal neurons = test: Acute glaucoma in rats, retinal cell death; type: in vivo; conditions: acute glaucoma by raised intraocular pressure
Source text: When acute glaucoma is induced by increasing the pressure in an eye, the retina gets destroyed. In Example 10, acute glaucoma was induced in rats by increasing intraocular pressure by micro-injection of saline into the anterior chamber. This induces large amounts of apoptotic cell death in the retina. There are twice as many dead cells in high pressure retinas of rats treated with vehicle versus control untreated rats. Posiphen rescued 72% of the retinal neurons. The results are depicted in FIG. 23. Administration of Posiphen to those rats preserves the retina and protects the retinal cells from dying.

IRP1/APP RNA complex = target: T1, IRP1/APP RNA complex (Homo sapiens, UniProt P21399); test: MST binding of Posiphen to IRP1/APP RNA complex; conditions: IRP1/APP 2, 600 nM; Posiphen tartrate; read-out: Kd, binding of Posiphen to APP IRE/IRP1 complex
T1 sequence (P21399 1-889): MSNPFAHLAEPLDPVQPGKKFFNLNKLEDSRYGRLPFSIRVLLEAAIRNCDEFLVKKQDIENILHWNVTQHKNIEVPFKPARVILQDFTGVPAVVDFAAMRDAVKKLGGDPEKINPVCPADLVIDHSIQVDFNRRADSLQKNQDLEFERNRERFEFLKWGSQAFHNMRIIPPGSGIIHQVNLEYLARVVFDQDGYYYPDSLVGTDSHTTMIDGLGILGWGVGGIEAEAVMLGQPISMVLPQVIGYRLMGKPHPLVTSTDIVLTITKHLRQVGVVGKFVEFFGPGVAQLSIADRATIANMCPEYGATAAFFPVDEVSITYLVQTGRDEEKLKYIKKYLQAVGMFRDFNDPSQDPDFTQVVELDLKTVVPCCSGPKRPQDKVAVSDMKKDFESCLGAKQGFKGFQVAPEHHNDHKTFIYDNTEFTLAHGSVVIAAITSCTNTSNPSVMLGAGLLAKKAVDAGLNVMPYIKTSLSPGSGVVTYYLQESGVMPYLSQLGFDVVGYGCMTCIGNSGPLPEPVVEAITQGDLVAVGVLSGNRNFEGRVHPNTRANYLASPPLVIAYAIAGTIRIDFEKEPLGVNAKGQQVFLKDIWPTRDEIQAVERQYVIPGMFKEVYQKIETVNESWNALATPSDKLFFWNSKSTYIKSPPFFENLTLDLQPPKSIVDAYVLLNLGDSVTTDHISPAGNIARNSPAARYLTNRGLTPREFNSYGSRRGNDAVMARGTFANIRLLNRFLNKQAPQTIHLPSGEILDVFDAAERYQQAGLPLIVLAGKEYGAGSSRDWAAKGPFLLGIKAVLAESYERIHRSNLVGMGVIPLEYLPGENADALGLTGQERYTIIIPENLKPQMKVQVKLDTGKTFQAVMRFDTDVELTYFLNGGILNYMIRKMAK
Description: (§1) Microscale thermophoresis (MST) binding experiments were done to assess binding in vitro between the different components. MST binding experiments were performed by incubating N-termini labeled protein (2 nM) with serial 2-fold dilutions of IRE RNAs, H-Ferritin ([…]) or APP ([…]) for 10 min in incubation buffer (Tris pH 7.4, 0.5%, 15 mM NaCl and 0.1% Prionex). IPR-1 was N-termini labeled with RED-NHS amino reactive labeling kit (NanoTemper Technologies, Germany). For determination of Posiphen binding, reactions containing IPR1 (2 nM), IRP1/H-Ferritin (2, 250 nM), or IRP1/APP (2, 600 nM) were incubated for 10 min with 2-fold dilutions of Posiphen tartrate. After incubation, samples were centrifuged at 13,000 rpm for 2 minutes before being loaded into standard capillaries provided by the manufacturer. Fluorescence values from the binding reactions were determined using the Monolith NT.115 (Nano Temper Technologies). Kd values were using the NanoTemper Technologies software. Conditions were standardized.

[2] = target: T2, IRP1/H-Ferritin RNA complex (Homo sapiens, UniProt P21399); test: MST binding of Posiphen to IRP1/H-Ferritin RNA complex; conditions: IRP1/H-Ferritin 2, 250 nM; Posiphen tartrate
T2 sequence (P21399 1-889): T1 sequence (P21399 1-889)
Description: as §1

aSYN = aSYN in enteric nervous system of transgenic PD mice; type: in vivo; conditions: PAC-Tg(SNCAA53T) mice, 21 weeks
Description: In Example 6, the effect of Posiphen on mice homozygous for the PAC-Tg(SNCAA53T) transgene was tested over the course of 21 weeks.

[3] = cited from earlier work
SNCA = conditions: cited from earlier work
IRP1 = target: T3, IRP1 (Homo sapiens, UniProt P21399); test: Microscale thermophoresis (MST) binding of IRE RNAs to IRP1; conditions: cell free, labeled IRP1 2 nM, without Posiphen; read-out: Kd of IRE RNA binding to IRP1
T3 sequence (P21399 1-889): T1 sequence (P21399 1-889)
Description: as §1

Q: Which results are given for CN1CC[C@]2(C)c3cc(OC(=O)Nc4ccccc4)ccc3N(C)C12 (stereo partly drawn) [Posiphen, (3aR)-1,3a,8-trimethyl-1,2,3,3a,8,8a-hexahydropyrrolo[2,3-b]indol-5-ylphenylcarbamate]?
A: translation of neurotoxic aggregating proteins [1]: does not inhibit; retinal neurons rescued (retinal neurons): 72%; Kd (IRP1/APP RNA complex): 3.2 nM and 3.22 nM; binding of Posiphen to the IRP1/H-Ferritin RNA complex [2]: no binding; inhibition of aSYN in enteric nerves (aSYN): about 40%; tolerability ([3]; doses up to 4×60 mg daily×10 days, humans): well tolerated; terminal half-life in plasma ([3]; human, all doses): 4.3 to 4.7 h

Q: With C[C@]12CC[C@H]3[C@@H](CC[C@]4(O)C[C@@H](O)CC[C@]34C=O)[C@@]1(O)CC[C@@H]2C1=CC(=O)OC1 [strophanthidine] as the compound, how does the “SNCA expression in neural cells, Western blotting” value (SNCA) read?
A: selectively blocked

Q: Which Kd (IRP1) does the source give for “APP: APP IRE RNA oligo GGUGGCGGCGCGGGCAGAGCAAGGACGCGGCGGAU (RNA, backbone not given here)” here?
A: 225 nM

Q: With “H-Ferritin: H-Ferritin IRE RNA oligo GGGGUUUCCUGCUUCAACAGUGCUUGGACGGAACC (RNA, backbone not given here)” as the compound, how does the Kd (IRP1) read?
A: 88.5 nM
